pKd: −log10 of the molar value. Counter-ions that a name gives are not always drawn.
How the values were obtained:
MCL1 protein = MCL1 protein (Homo sapiens (Human), UniProt Q07820); assay: PIxEL: protein-protein interaction in permeabilized cells by ELISA (Assay 5); format: cell-based; conditions: permeabilized RKO cells, Biotin-BIM peptide 0.2 μM, serum free; median
Experimental: PI×EL: Protein-Protein Interaction in Permeabilized Cells by ELISA
Most MCL1 protein molecules are localized at the mitochondria outer membrane and sequester pro-apoptotic proteins through binding of their BCL2 homology domain 3 (BH3 domain). MEB buffer (150 mM mannitol, 10 mM HEPES pH 7.5, 50 mM KCl, 20 μM EDTA, 20 μM EGTA, 5 mM potassium succinate, 0.1% protease-free BSA (SIGMA) with low dose digitonin (0.002%) permeabilizes plasma membrane while leaves live mitochondria, where MCL1 maintains its native localization and conformation. Unlike biophysical assays (e.g. TR-FRET) that use truncated recombinant MCL1 protein, this assay uses full length endogenous MCL1 protein at mitochondria outer membrane. It measures the interaction between MCL1 protein and biotinylated BIM BH3 peptide. Compounds can compete with BIM BH3 peptide to bind to MCL1 protein. This serum free assay measures the affinity between MCL1 protein and compound in permeabilized cells, therefore it is not affected by serum binding and cell permeability, and can measure the intrinsic compound affinity.
On day 1, RKO colon cancer cell line cells were plated at 0.8 million cells/ml, 100 μl/well in 96-well flat bottom TC plates (Corning). MCL1 antibody (Santa Cruz sc-12756) were diluted at 200 fold (final concentration 1 μg/ml) in carbonate buffer (Thermo Fisher Scientific, pH 9.6), and 50 μl of diluted antibody was added to each well of high bind ELISA plates (SARSTEDT). Each plate was tapped to make sure liquid covering entire bottom of wells and incubate at 37° C. overnight.
On the second day, MCL1 antibody was washed from ELISA plate. 250 μl Odyssey® Blocking Buffer (PBS) (Li-Cor) was added to each well, incubated at room temperature for at least 1 hour, then washed once with 250 μl 1×PBST. Plates with RKO cells were gently washed once with 100 μl/well PBS, once with 100 μl/well MEB buffer without digitonin, then 100 μl of MEB buffer with 0.002% digitonin was gently added to each well. Compounds were added with HP Tecan compound dispenser in 3-fold dilution series, highest dose 30 μM, 10-dose per compound in quadruplicates. Biotin-BIM peptide (synthesized by 21st Century) was added with HP Tecan compound dispenser at 0.2 μM immediately after the addition of compounds. Plates were rocked for 1 hour at room temperature. Then MEB buffer was aspirated and 50 μl of CHAPS buffer (50 mM Tris-Cl, pH 7.4, 150 mM NaCl, 1% CHAPS, 1 mM EDTA, 1 mM EGTA, cOmplete protease inhibitors (Roche), PhosSTOP (Roche)) was added to each well. Plates were rocked for 1 hour at 4° C., then 45 μl cell lysate from each well were transferred to ELISA plates coated with MCL1 antibody. Plates were incubated overnight in the cold room with rocking.
On the third day, ELISA plates were washed once with 250 μl 1×PBST. Streptavidin-poly-HRP (Thermo Fisher Scientific) was diluted to 20 ng/ml in Odyssey blocking buffer plus 0.05% Triton-100, and 100 μl was added to each well of the ELISA plate. Plates were incubated at room temperature for 1 hour with rocking, then washed with 100 μL 1×PBST for 3 times. Each SuperSignal ELISA Femto Maximum Sensitivity substrate was added to a 50-ml tube and mixed, then 100 μl of mixed substrate was added to each well. Plates were shaken for 1 minute then luminescence was measured by Envision plate reader […]. Signal of each well were normalized by no-compound control and no-cell control. IC50 was calculated using Graphic Pad PRISM software.

MCL-1 = MCL-1 (Homo sapiens (Human), UniProt Q07820, K194A/K197A/R201A); assay: Protein-compound interaction assay (SPR assay, Assay 8); format: binding; conditions: immobilized MBP-MCL-1, 25° C., geometric mean; for koff: read-out: koff; for kon: read-out: kon
Chain of MCL-1 (Q07820 whole entry K194A/K197A/R201A, looked up): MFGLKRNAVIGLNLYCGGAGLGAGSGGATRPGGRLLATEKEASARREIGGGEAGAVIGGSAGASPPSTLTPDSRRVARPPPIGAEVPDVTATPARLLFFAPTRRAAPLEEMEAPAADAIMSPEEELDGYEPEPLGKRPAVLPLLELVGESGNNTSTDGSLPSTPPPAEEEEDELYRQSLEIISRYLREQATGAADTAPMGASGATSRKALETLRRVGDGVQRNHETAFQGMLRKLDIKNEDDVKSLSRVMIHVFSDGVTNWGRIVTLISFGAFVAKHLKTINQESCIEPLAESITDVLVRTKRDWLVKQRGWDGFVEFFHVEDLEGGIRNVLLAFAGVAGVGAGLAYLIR
Description: Assay 8 Protein-Compound Interaction Assay (SPR Assay)
The ability of the compounds described in this invention to bind to MCL-1 may be determined using surface plasmon resonance (SPR). This allows for the quantification of binding in terms of the equilibrium dissociation constant (KD [M]), as well as association and dissociation rate constants (kon [1/M 1/s] and koff [1/s], respectively). The measurements may be performed using Biacore® T200 or Biacore® S200 instruments (GE Healthcare).
For SPR measurements, recombinant MCL-1 (amino acids 173-321, N-terminal fused to Maltose Binding Protein (MBP) (SEQ ID 1) purchased from Beryllium (Bedford, Mass., USA)) was immobilized using standard amine coupling (Johnsson B et al, Anal Biochem. 1991 Nov. 1; 198(2):268-77). Briefly, carboxymethylated dextran biosensor chips (Series S Sensor Chip CMS, GE Healthcare) were activated with 1-ethyl-3-(3-dimethylaminopropyl)-carbodiimide hydrochloride (EDC) and N-hydroxysuccinimide (NHS) according to the supplier's instructions. MBP-MCL-1 was diluted in 1×PBS-P+ (GE Healthcare) and injected on the activated chip surface. Subsequently, a solution of 1 M ethanolamine-HCl (GE Healthcare) was injected to block unreacted groups, resulting in approximately 400-2500 response units (RU) of immobilized protein. A reference surface was generated by treatment with NHS-EDC and ethanolamine-HCl. Compounds were dissolved in 100% dimethylsulfoxide (DMSO) to a concentration of 10 mM and subsequently diluted in running buffer (1×PBS-P+ (GE Healthcare) [generated from PBS-P+ Buffer 10× (GE Healthcare): 0.2 M phosphate buffer with 27 mM KCl, 1.37 M NaCl and 0.5% Surfactant P20 (Tween 20).], 1% v/v DMSO). For SPR binding-measurements, serial dilutions of compound (eight dilution steps, typically ranging from 0.2 nM up to 1 μM) were injected over immobilized protein. […] Compounds were injected for 60 s followed by a dissociation time of up to 1000 s.
The double-referenced sensorgrams were fit to a simple reversible Langmuir 1:1 reaction mechanism as implemented in the Biacore® T200 and S200 evaluation software (T200 evaluation software version 2.0 and S200 evaluation software version 1.0, GE Healthcare).

A2780 = assay: Antiproliferation assay (Assay 7), A2780; format: cell-based; conditions: CellTiter-Glo, 72 hours, several values per example, listed as 06, read-out: Antiproli A2780 [M] IC50
Experimental: Assessment of the Anti-Proliferative Effect of Compounds in Different Cell Lines
The impact of compounds on the proliferation of different cell lines was assessed using the CellTiter-Glo® Luminescent Cell Viability reagent from Promega (G7573).
In parallel, cells were plated in a reference (day 0) plate for time zero determination.
Rim wells were excluded. The cells were incubated for 72 hours in a humidified incubator at 37° C. The day 0 plate was measured by adding 30 μL/well of CTG solution (CellTiter-Glo® Luminescent Cell Viability reagent, Promega G7573) to time zero wells in the reference plate followed by a 10 minutes incubation and luminescence reading at 0.1 ms. using the PHERAstar FS microplate reader (BMG Labtech).
After 72 hours incubation, the treated plates were measured in the same way as the day 0 plate mentioned above.

Chain of MCL1 protein (Q07820 whole entry): as the sequence (Q07820 whole entry K194A/K197A/R201A, looked up) above, with A194K, A197K, A201R counted along it

Cc1c2c(nn1C)C(CCN1CCOCC1)N(C)S(=O)(=O)CCCn1c(C(=O)O)c(CCCOc3cccc4ccccc34)c3cccc-2c31 (single isomer, unassigned; enantiomer 2) [Example 46, 2,3,14-trimethyl-15-[2-(morpholin-4-yl)ethyl]-7-{3-[(naphthalen-1-yl)oxy]propyl}-13,13-dioxo-10,11,12,13,14,15-hexahydro-2H-13lambda^6-pyrazolo[3′,4′:4,5][1,2,8]thiadiazacycloundecino[6,7,8-hi]indole-8-carboxylic acid N-ethylethanamine Salt (Enantiomer 2)]
IC50 (MCL1 protein): 201 nM
pKd (MCL-1): 8.55
koff (MCL-1): 0.016 s⁻¹
kon (MCL-1): 5.6e+06 M⁻¹ s⁻¹

CCc1c2c(nn1C)CN(C)S(=O)(=O)CCCn1c(C(=O)O)c(CCCOc3cccc4cc(F)ccc34)c3ccc(F)c-2c31 (single isomer, unassigned; enantiomer 1) [Example 8, (+)-3-Ethyl-4-fluoro-7-{3-[(6-fluoronaphthalen-1-yl)oxy]propyl}-2,14-dimethyl-13,13-dioxo-10,11,12,13,14,15-hexahydro-2H-13λ^6-pyrazolo[3′,4′:4,5][1,2,8]thiadiazacycloundecino-[6,7,8-hi]indole-8-carboxylic acid (Enantiomer 1)]
IC50 (MCL1 protein): 552 nM
pKd (MCL-1): 8.44
koff (MCL-1): 0.008 s⁻¹
kon (MCL-1): 2.2e+06 M⁻¹ s⁻¹

Cc1c2c(nn1C)CN(C1CC1)S(=O)(=O)CCCn1c(C(=O)O)c(CCCOc3cccc4cc(F)ccc34)c3ccc(Cl)c-2c31 (single isomer, unassigned; enantiomer 1) [Example 42, (−)-4-chloro-14-cyclopropyl-7-{3-[(6-fluoro-1-naphthyl)oxy]propyl}-2,3-dimethyl-11,12,14,15-tetrahydro-2H,10H-pyrazolo[3′,4′:4,5][1,2,8]thiadiazacycloundecino[6,7,8-hi]indole-8-carboxylic acid 13,13-dioxide N-diethylamine salt (Enantiomer 1)]
IC50 (MCL1 protein): 157 nM
pKd (MCL-1): 8.12
koff (MCL-1): 0.016 s⁻¹
kon (MCL-1): 2.1e+06 M⁻¹ s⁻¹

Cc1c2c(nn1C)CN(C)S(=O)(=O)CCCn1c(C(=O)O)c(CCCOc3cccc4cc(F)ccc34)c3ccc(F)c-2c31 (single isomer, unassigned; enantiomer 2) [Example 39, (+)-4-fluoro-7-{3-[(6-fluoronaphthalen-1-yl)oxy]propyl}-2,3,14-trimethyl-13,13-dioxo-10,11,12,13,14,15-hexahydro-2H-13lambda^6-pyrazolo[3′,4′:4,5][1,2,8]thiadiazacycloundecino-[6,7,8-hi]indole-8-carboxylic acid (Enantiomer 2)]
IC50 (MCL1 protein): 506 nM
pKd (MCL-1): 8.28
koff (MCL-1): 0.018 s⁻¹
kon (MCL-1): 3.4e+06 M⁻¹ s⁻¹

Cc1c2c(nn1C)CN(C)S(=O)(=O)CCCn1c(C(=O)O)c(CCCOc3cccc4ccccc34)c3ccc(Cl)c-2c31 (single isomer, unassigned; enantiomer 2) [Example 6, 4-Chloro-2,3,14-trimethyl-7-{3-[(naphthalen-1-yl)oxy]propyl}-13,13-dioxo-10,11,12,13,14,15-hexahydro-2H-13λ^6-pyrazolo[3′,4′:4,5][1,2,8]thiadiazacycloundecino[6,7,8-hi]indole-8-carboxylic acid-N-ethylethanamine salt (Enantiomer 2)]
IC50 (A2780): 1.19e-05 M

CCc1c2c(nn1C)C(CCC1CCOCC1)N(C)S(=O)(=O)CCCn1c(C(=O)O)c(CCCOc3cccc4cc(F)ccc34)c3ccc(Cl)c-2c31 (single isomer, unassigned; enantiomer 1) [Example 61, (+)-4-chloro-3-ethyl-7-{3-[(6-fluoronaphthalen-1-yl)oxy]propyl}-2,14-dimethyl-15-[2-(oxan-4-yl)ethyl]-13,13-dioxo-10,11,12,13,14,15-hexahydro-2H-13lambda^6-pyrazolo[3′,4′:4,5][1,2,8]thiadiazacycloundecino[6,7,8-hi]indole-8-carboxylic acid (Enantiomer 1)]
IC50 (MCL1 protein): 14.2 nM
pKd (MCL-1): 8.72
koff (MCL-1): 0.0012 s⁻¹
kon (MCL-1): 590000 M⁻¹ s⁻¹

CCc1c2c(nn1C)CN(C)S(=O)(=O)CCCn1c(C(=O)O)c(CCCOc3cccc4cc(F)ccc34)c3ccc(Cl)c-2c31 (single isomer, unassigned; enantiomer 1) [Example 36, (+)-4-chloro-3-ethyl-7-{3-[(6-fluoronaphthalen-1-yl)oxy]propyl}-2,14-dimethyl-13,13-dioxo-10,11,12,13,14,15-hexahydro-2H-13lambda^6-pyrazolo[3′,4′:4,5][1,2,8]thiadiazacycloundecino-[6,7,8-hi]indole-8-carboxylic acid (Enantiomer 1)]
IC50 (MCL1 protein): 86.6 nM
pKd (MCL-1): 8.40
koff (MCL-1): 0.004 s⁻¹
kon (MCL-1): 1e+06 M⁻¹ s⁻¹

Cc1c2c(nn1C)C(CCN1CCOCC1)N(C)S(=O)(=O)CCCn1c(C(=O)O)c(CCCOc3cccc4cc(F)ccc34)c3ccc(Cl)c-2c31 (racemic) [Example 48, (rac)-4-chloro-7-{3-[(6-fluoro-1-naphthyl)oxy]propyl}-2,3,14-trimethyl-15-(rac)-[2-(morpholin-4-yl)ethyl]-11,12,14,15-tetrahydro-2H,10H-pyrazolo[3′,4′:4,5][1,2,8]thiadiazacycloundecino[6,7,8-hi]indole-8-carboxylic acid 13,13-dioxide (Mixture of Stereoisomers)]
IC50 (MCL1 protein): 29.9 nM

From US11401278B2, “Macrocyclic indole derivatives” (The Broad Institute, Inc., priority 2017, dated 2022)
